Test results as given in ChEMBL document CHEMBL3822449, “[Dmt(1)]DALDA analogues modified with tyrosine analogues at position 1” (Bioorg Med Chem Lett, 2016).

Assays:
[1] = Antioxidant activity assessed as DPPH radical scavenging activity incubated for 30 mins; format: physicochemical; settings: 0.5 h
[2] = target: Delta-type opioid receptor (Mus musculus, UniProt P32300); assay: Agonist activity at delta opioid receptor in albino mouse vas deferens assessed as inhibition of electrically-stimulated muscle contraction; format: tissue-based
Chain of Delta-type opioid receptor (P32300 whole entry): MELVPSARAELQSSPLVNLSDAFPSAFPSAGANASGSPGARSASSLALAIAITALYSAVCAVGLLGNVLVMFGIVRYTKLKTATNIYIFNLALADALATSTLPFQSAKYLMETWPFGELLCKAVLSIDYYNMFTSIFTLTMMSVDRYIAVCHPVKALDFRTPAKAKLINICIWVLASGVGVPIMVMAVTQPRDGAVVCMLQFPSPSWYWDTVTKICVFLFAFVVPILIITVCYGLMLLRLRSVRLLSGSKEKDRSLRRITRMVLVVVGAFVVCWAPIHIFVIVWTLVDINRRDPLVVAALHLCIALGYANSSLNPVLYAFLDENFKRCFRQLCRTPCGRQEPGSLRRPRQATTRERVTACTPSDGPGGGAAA

Compound | Activity [1] [%] | IC50 [2] [nM]
Cc1cc(O)cc(C)c1C[C@H](N)C(=O)N[C@H](CCCNC(=N)N)C(=O)N[C@@H](Cc1ccccc1)C(=O)N[C@@H](CCCCN)C(N)=O | 31.64 | 
NCCCC[C@H](NC(=O)[C@H](Cc1ccccc1)NC(=O)[C@@H](CCCN=C(N)N)NC(=O)[C@@H](N)Cc1ccc(O)cc1)C(N)=O |  | 781
